Data as given in patent US20200385777A1, “METHOD FOR DETERMINING DYSBIOSIS IN THE INTESTINAL MICROBIOME” (EVOLVE BIOSYSTEMS, INC., priority 2018, published 2020).

Assays:
[1] = test system: isolate 7122-9; assay: MIC microdilution, fecal isolate 7122-9; assay type: cell-based; conditions: for Resistant/Susceptible according to breakpoints for clinical resistance: isolate 7122-9; for MIC: read-out: Minimum inhibitory concentration (MIC)
Description: (§1) Whole genome sequencing and assembly of bacterial isolates. […] Selected isolates were grown in 20 ml LB broth overnight at 37° C. Cultures were aliquoted into 1 ml aliquots, centrifuged at 10,000×g for 5 min and the supernatant was removed. Cell pellets were resuspended in DNA/RNA Shield solution provided in DNA/RNA Shield Microbe Lysis tubes (Zymo Research, Irvine Calif.) and transferred into lysis tubes. High-molecular weight genomic DNA was extracted using the Quick-DNA Fecal/Soil
(§2) Minimal inhibitory concentrations. […] Carbenicillin was added to growth media for transformed strains at a concentration of 100 μg/ml. The microtiter plates were incubated for 24 h at 37° C. The optical density (OD) of each well was measured at 600 nm using an automated microtiter plate reader (BIO-TEK, Synergy HT). The MIC corresponded to the lowest antibiotic concentration at which no growth was detected. All tests were performed in triplicate

[2] = test system: isolate 7174-5; assay: MIC microdilution, fecal isolate 7174-5; assay type: cell-based; conditions: for Resistant/Susceptible according to breakpoints for clinical resistance: isolate 7174-5; for MIC: read-out: Minimum inhibitory concentration (MIC)
Description: as §1, §2

[3] = test system: isolate 7122-2; assay: MIC microdilution, fecal isolate 7122-2; assay type: cell-based; conditions: for Resistant/Susceptible according to breakpoints for clinical resistance: isolate 7122-2; for MIC: read-out: Minimum inhibitory concentration (MIC)
Description: as §1, §2

[4] = test system: isolate 7005-13; assay: MIC microdilution, fecal isolate 7005-13; assay type: cell-based; conditions: for Resistant/Susceptible according to breakpoints for clinical resistance: isolate 7005-13; for MIC: read-out: Minimum inhibitory concentration (MIC)
Description: as §1, §2

[5] = test system: isolate 7005-9; assay: MIC microdilution, fecal isolate 7005-9; assay type: cell-based; conditions: for Resistant/Susceptible according to breakpoints for clinical resistance: isolate 7005-9; for MIC: read-out: Minimum inhibitory concentration (MIC)
Description: as §1, §2

[6] = test system: DH5α; assay: MIC microdilution, DH5α; assay type: cell-based; conditions: for MIC: read-out: Minimum inhibitory concentration (MIC)
Description: as §2

[7] = test system: isolate 7005-11; assay: MIC microdilution, fecal isolate 7005-11; assay type: cell-based; conditions: for Resistant/Susceptible according to breakpoints for clinical resistance: isolate 7005-11; for MIC: read-out: Minimum inhibitory concentration (MIC)
Description: as §1, §2

[8] = test system: isolate 7084-1; assay: MIC microdilution, fecal isolate 7084-1; assay type: cell-based; conditions: for Resistant/Susceptible according to breakpoints for clinical resistance: isolate 7084-1; for MIC: read-out: Minimum inhibitory concentration (MIC)
Description: as §1, §2

[9] = test system: isolate 7005-5; assay: MIC microdilution, fecal isolate 7005-5; assay type: cell-based; conditions: for Resistant/Susceptible according to breakpoints for clinical resistance: isolate 7005-5; for MIC: read-out: Minimum inhibitory concentration (MIC)
Description: as §1, §2

[10] = test system: isolate 7174-2; assay: MIC microdilution, fecal isolate 7174-2; assay type: cell-based; conditions: for Resistant/Susceptible according to breakpoints for clinical resistance: isolate 7174-2; for MIC: read-out: Minimum inhibitory concentration (MIC)
Description: as §1, §2

[11] = test system: isolate 7084-4; assay: MIC microdilution, fecal isolate 7084-4; assay type: cell-based; conditions: for Resistant/Susceptible according to breakpoints for clinical resistance: isolate 7084-4; for MIC: read-out: Minimum inhibitory concentration (MIC)
Description: as §1, §2

[12] = test system: isolate 7122-1; assay: MIC microdilution, fecal isolate 7122-1; assay type: cell-based; conditions: for Resistant/Susceptible according to breakpoints for clinical resistance: isolate 7122-1; for MIC: read-out: Minimum inhibitory concentration (MIC)
Description: as §1, §2

[13] = test system: isolate 7174-4; assay: MIC microdilution, fecal isolate 7174-4; assay type: cell-based; conditions: for Resistant/Susceptible according to breakpoints for clinical resistance: isolate 7174-4; for MIC: read-out: Minimum inhibitory concentration (MIC)
Description: as §1, §2

[14] = test system: isolate 7084-5; assay: MIC microdilution, fecal isolate 7084-5; assay type: cell-based; conditions: for Resistant/Susceptible according to breakpoints for clinical resistance: isolate 7084-5; for MIC: read-out: Minimum inhibitory concentration (MIC)
Description: as §1, §2

[15] = test system: bacteria isolated from EMB agar from fecal samples of control infants; assay: MIC, fecal isolates of control infants taken together; assay type: cell-based, Escherichia coli; Raoultella planticola; conditions: all fecal isolates
Description: To confirm the presence of full length, functional ARGs and the relationship of these ARGs to individual resistance phenotypes at the strain level, bacteria isolated from EMB agar were obtained from the fecal samples of four representative control infants. Whole-genome sequencing of twelve isolates was performed on a MinION sequencer and assembly led to an average coverage of 18× (min 5.4; max 40). Taxonomic identification was confirmed via BLASTN against the NCBI nucleotide database (https://www.ncbl.nlrn.nih.gov/nucleotide) showing three isolates classified as Raoultella planticola and the remaining nine as Escherichia coli. The CARD protein sequences collection was used as query against the twelve assembled isolates via TBLASTN. […] The latter genes are likely absent on the E. coli and R. planticola genomes and present on different species.
Whole genome sequencing and assembly of bacterial isolates. […]
Minimal inhibitory concentrations. Minimal inhibitory concentrations (MICs) were determined according to Clinical and Laboratory Standards Institute guidelines for microdilution susceptibility testing {Wikler, 2006}. […] The optical density (OD) of each well was measured at 600 nm using an automated microtiter plate reader (BIO-TEK, Synergy HT). The MIC corresponded to the lowest antibiotic concentration at which no growth was detected. […]

| SMILES | Resistant/Susceptible according to breakpoints for clinical resistance [1] | MIC [1] [µg/mL] | Resistant/Susceptible according to breakpoints for clinical resistance [2] | MIC [2] [µg/mL] | Resistant/Susceptible according to breakpoints for clinical resistance [3] | MIC [3] [µg/mL] | Resistant/Susceptible according to breakpoints for clinical resistance [4] | MIC [4] [µg/mL] | Resistant/Susceptible according to breakpoints for clinical resistance [5] | MIC [5] [µg/mL] | Resistant/Susceptible according to breakpoints for clinical resistance [6] | MIC [6] [µg/mL] | MIC [7] [µg/mL] | MIC [8] [µg/mL] | MIC [9] [µg/mL] | MIC [10] [µg/mL] | MIC [11] [µg/mL] | MIC [12] [µg/mL] | MIC [13] [µg/mL] | MIC [14] [µg/mL] | also measured |
| --- | --- | --- | --- | --- | --- | --- | --- | --- | --- | --- | --- | --- | --- | --- | --- | --- | --- | --- | --- | --- | --- |
| CO/N=C(\C(=O)N[C@@H]1C(=O)N2C(C(=O)O)=C(COC(C)=O)CS[C@H]12)c1csc(N)n1 [Cefotaxime] | (S) | < 4 | (S) | < 4 | (S) | < 4 | (R) | 512 | (R) | 128 | (S) | < 4 | 512 | < 4 | 32 | < 4 | < 4 | < 4 | < 4 | < 4 | Resistant/Susceptible according to breakpoints for clinical resistance [7]: (R); Resistant/Susceptible according to breakpoints for clinical resistance [8]: (S); Resistant/Susceptible according to breakpoints for clinical resistance [9]: (R); Resistant/Susceptible according to breakpoints for clinical resistance [10]: (S); Resistant/Susceptible according to breakpoints for clinical resistance [11]: (S); Resistant/Susceptible according to breakpoints for clinical resistance [12]: (S); Resistant/Susceptible according to breakpoints for clinical resistance [13]: (S); Resistant/Susceptible according to breakpoints for clinical resistance [14]: (S) |
| CC1(C)S[C@@H]2[C@H](NC(=O)[C@H](N)c3ccccc3)C(=O)N2[C@H]1C(=O)O [Ampicillin] | (S) | 16 | (R) | 512 | (S) | 16 | (R) | 64 | (R) | 128 | (S) | 4 | 64 | 512 | 128 | 512 | 512 | 16 | 512 | 512 | Resistance among the isolates [15]: With the exception of three isolates obtained from the same infant (7174), all of the isolates displayed resistance; Resistant/Susceptible according to breakpoints for clinical resistance [7]: (R); Resistant/Susceptible according to breakpoints for clinical resistance [8]: (R); Resistant/Susceptible according to breakpoints for clinical resistance [9]: (R); Resistant/Susceptible according to breakpoints for clinical resistance [10]: (R); Resistant/Susceptible according to breakpoints for clinical resistance [11]: (R); Resistant/Susceptible according to breakpoints for clinical resistance [12]: (S); Resistant/Susceptible according to breakpoints for clinical resistance [13]: (R); Resistant/Susceptible according to breakpoints for clinical resistance [14]: (R) |
| CO/N=C(\C(=O)N[C@@H]1C(=O)N2C(C(=O)[O-])=C(C[N+]3(C)CCCC3)CS[C@H]12)c1csc(N)n1 [Cefepime] |  | < 4 |  | < 4 |  | < 4 |  | 512 |  | 64 |  | < 4 | 512 | < 4 | 16 | < 4 | < 4 | < 4 | < 4 | < 4 |  |
| CN(C)[C@@H]1C(O)=C(C(N)=O)C(=O)[C@@]2(O)C(O)=C3C(=O)c4c(O)cccc4[C@@](C)(O)[C@H]3C[C@@H]12 [Tetracycline] |  | 8 |  | 64 |  | 8 |  |  |  |  |  | < 4 |  | 16 |  | 64 | 16 | 16 | 128 | 16 |  |
